Source: patent US20020137929A1, “1 - (3-heterocyclylphenyl) isothiourea, -isourea, -guanidine and -amidine herbicidal agents” (Intellectual Property Department, BASF Aktiengesellschaft, priority 1998, published 2002)

Legend:
[1] = tested on: CASOB (Sicklepod); assay: Postemergence herbicidal evaluation; assay type: in vivo, Cassia obtusifolia; conditions: postemergence
In short: (§1)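 Seedlings grown about two weeks were sprayed at 40 psi with compound dispersed in 50/50 acetone/water plus 0.5% TWEEN 20, at about 0.0156 to 0.500 kg/ha. Plants were kept in the greenhouse and scored 4–5 weeks later on a 0–9 visual scale against untreated controls.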

[2] = tested on: CHEAL (Lambsquarters, Common); assay: Preemergence herbicidal evaluation; assay type: in vivo, Chenopodium album; conditions: rated 4-5 weeks after treatment
In short: (§2)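 Herbicidal effect scored visually, 0-9, at 4 to 5 weeks against a control; compound applied preemergence by aqueous acetone spray to seeded soil at about 0.0156 to 0.500 kg/ha.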

[3] = tested on: CHEAL (Lambsquarters, Common); assay: Postemergence herbicidal evaluation; assay type: in vivo, Chenopodium album; conditions: postemergence
In short: as §1

[4] = tested on: ORYSAT (Rice, Tebonnet); assay: Preemergence herbicidal evaluation; assay type: in vivo, Oryza sativa, (L.) Tebonnet; conditions: rated 4-5 weeks after treatment
In short: as §2

[5] = tested on: TRZAWR (Wheat, Winter, cv Riband); assay: Postemergence herbicidal evaluation; assay type: in vivo, Triticum aestivum; conditions: postemergence
In short: as §1

[6] = rate 0.0156 kg/ha, rating scale 0-9
[7] = rate 0.0313 kg/ha, rating scale 0-9
[8] = rate 0.0625 kg/ha, rating scale 0-9
[9] = rate 0.1250 kg/ha, rating scale 0-9
[10] = rate 0.2500 kg/ha, rating scale 0-9

Row | SMILES | Herbicidal rating CASOB ([1]; rate 0.0156 kg/ha) | Herbicidal rating CASOB ([1]; rate 0.0313 kg/ha) | Herbicidal rating CASOB ([1]; rate 0.0625 kg/ha) | Herbicidal rating CASOB ([1]; rate 0.1250 kg/ha) | Herbicidal rating CHEAL ([3]; rate 0.0156 kg/ha) | Herbicidal rating CHEAL ([3]; rate 0.0313 kg/ha) | Herbicidal rating CHEAL ([3]; rate 0.0625 kg/ha) | Herbicidal rating CHEAL ([3]; rate 0.1250 kg/ha) | Herbicidal rating TRZAWR ([5]; rate 0.0156 kg/ha) | Herbicidal rating TRZAWR ([5]; rate 0.0313 kg/ha) | Herbicidal rating TRZAWR ([5]; rate 0.0625 kg/ha) | Herbicidal rating TRZAWR ([5]; rate 0.1250 kg/ha) | Preemergence herbicidal rating CHEAL [2, 7] | Preemergence herbicidal rating CHEAL [2, 8] | Preemergence herbicidal rating CHEAL [2, 9] | Preemergence herbicidal rating CHEAL [2, 10] | Preemergence herbicidal rating ORYSAT [4, 7] | Preemergence herbicidal rating ORYSAT [4, 8] | Preemergence herbicidal rating ORYSAT [4, 9] | Preemergence herbicidal rating ORYSAT [4, 10] | other results
1 | Cn1c(C(F)(F)F)cc(=O)n(-c2cc(N=C3SCC(=O)N3C3CCCC3)c(Cl)cc2F)c1=O [Compound 166, 3-{4-Chloro-5-[(3-cyclopentyl-4-oxo-2-thiazolidinylidene)amino]-2-fluorophenyl}-1-methyl-6-(trifluoromethyl)-2,4(1H,3H)-pyrimidinedione] | 0.0 | 0.0 | 0.0 | 1.0 | 0.0 | 1.0 | 4.0 | 7.0 | 1.5 | 1.5 | 2.5 | 3.0 | – | – | – | – | – | – | – | – | Preemergence herbicidal rating CHEAL ([2]; 0.0156 kg/ha): 1.0; Preemergence herbicidal rating CHEAL ([2]; 0.0313 kg/ha): 0.0; Preemergence herbicidal rating CHEAL ([2]; 0.0625 kg/ha): 3.0; Preemergence herbicidal rating CHEAL ([2]; 0.1250 kg/ha): 9.0; Preemergence herbicidal rating CHEAL ([2]; 0.2500 kg/ha): 9.0; Preemergence herbicidal rating CHEAL ([2]; 0.5000 kg/ha): 9.0; Preemergence herbicidal rating ORYSAT ([4]; 0.0156 kg/ha): 0.0; Preemergence herbicidal rating ORYSAT ([4]; 0.0313 kg/ha): 0.0; Preemergence herbicidal rating ORYSAT ([4]; 0.0625 kg/ha): 1.0; Preemergence herbicidal rating ORYSAT ([4]; 0.1250 kg/ha): 1.0; Preemergence herbicidal rating ORYSAT ([4]; 0.2500 kg/ha): 1.0; Preemergence herbicidal rating ORYSAT ([4]; 0.5000 kg/ha): 5.0
2 | Cn1c(C(F)(F)F)cc(=O)n(-c2cc(N=C3SCC(=O)N3Cc3cccc(Cl)c3)c(Cl)cc2F)c1=O [Compound 136, 3-{4-Chloro-5-{[3-(m-chlorobenzyl)-4-oxo-2-thiazolidinylidene]amino}-2-fluorophenyl}-1-methyl-6-(trifluoromethyl)-2,4(1H,3H)-pyrimidinedione] | 1.0 | 4.0 | 7.0 | – | 9.0 | 9.0 | 9.0 | – | 2.5 | 3.0 | 3.0 | – | 9.0 | 9.0 | 9.0 | 9.0 | 0.0 | 0.0 | 1.0 | 1.0 | Preemergence herbicidal rating CHEAL [2, 6]: 2.0; Preemergence herbicidal rating ORYSAT [4, 6]: 0.0
3 | Cn1c(C(F)(F)F)cc(=O)n(-c2cc(N=C3SCC(=O)N3Cc3ccccn3)c(Cl)cc2F)c1=O [Compound 131] | 1.0 | 1.0 | 3.0 | – | 3.0 | 5.0 | 9.0 | – | 3.0 | 3.0 | 3.0 | – | 4.0 | 9.0 | 9.0 | 9.0 | 0.0 | 0.0 | 0.0 | 0.0 | –
4 | Cn1c(C(F)(F)F)cc(=O)n(-c2cc(N=C3SCC(=O)N3CC(=O)OCC3CCCCC3)c(Cl)cc2F)c1=O [Compound 123, Cyclohexylmethyl 2-{{2-chloro-5-[3,6-dihydro-3-methyl-2,6-dioxo-4-(trifluoromethyl)-1(2H)-pyrimidinyl]-4-fluorophenyl}imino}-4-oxo-3-thiazolidineacetate] | 3.0 | 3.0 | 9.0 | 8.0 | 9.0 | 9.0 | 9.0 | 9.0 | 4.0 | 4.5 | 6.0 | 6.5 | – | – | – | – | – | – | – | – | Preemergence herbicidal rating CHEAL ([2]; rate 0.0156 kg/ha): 9.0; Preemergence herbicidal rating CHEAL ([2]; rate 0.0313 kg/ha): 9.0; Preemergence herbicidal rating CHEAL ([2]; rate 0.0625 kg/ha): 9.0; Preemergence herbicidal rating CHEAL ([2]; rate 0.1250 kg/ha): 9.0; Preemergence herbicidal rating CHEAL ([2]; rate 0.2500 kg/ha): 9.0; Preemergence herbicidal rating CHEAL ([2]; rate 0.5000 kg/ha): 9.0; Preemergence herbicidal rating ORYSAT ([4]; rate 0.0156 kg/ha): 0.0; Preemergence herbicidal rating ORYSAT ([4]; rate 0.0313 kg/ha): 0.0; Preemergence herbicidal rating ORYSAT ([4]; rate 0.0625 kg/ha): 0.0; Preemergence herbicidal rating ORYSAT ([4]; rate 0.1250 kg/ha): 1.0; Preemergence herbicidal rating ORYSAT ([4]; rate 0.2500 kg/ha): 3.0; Preemergence herbicidal rating ORYSAT ([4]; rate 0.5000 kg/ha): 5.0
5 | CCOC(=O)[C@H](Cc1ccccc1)N1C(=O)CSC1=Nc1cc(-n2c(=O)cc(C(F)(F)F)n(C)c2=O)c(F)cc1Cl [Compound 80, Ethyl α-benzyl-2-{{2-chloro-5-[3,6-dihydro-3-methyl-2,6-dioxo-4-(trifluoromethyl)-1(2H)-pyrimidinyl]-4-fluorophenyl}imino}-4-oxo-3-thiazolidineacetate, L-] | – | – | – | – | – | – | – | – | – | – | – | – | – | – | – | – | – | – | – | – | CASOB herbicidal rating ([1]; rate 0.0158 kg/ha): 1.0; CASOB herbicidal rating ([1]; rate 0.0315 kg/ha): 5.0; CASOB herbicidal rating ([1]; rate 0.0630 kg/ha): 9.0; Preemergence herbicidal rating CHEAL ([2]; rate 0.0156 kg/ha): 7.0; Preemergence herbicidal rating CHEAL ([2]; rate 0.0313 kg/ha): 9.0; Preemergence herbicidal rating CHEAL ([2]; rate 0.0625 kg/ha): 9.0; Preemergence herbicidal rating CHEAL ([2]; rate 0.1250 kg/ha): 9.0; Preemergence herbicidal rating CHEAL ([2]; rate 0.2500 kg/ha): 9.0; CHEAL herbicidal rating ([3]; rate 0.0158 kg/ha): 9.0; CHEAL herbicidal rating ([3]; rate 0.0315 kg/ha): 9.0; CHEAL herbicidal rating ([3]; rate 0.0630 kg/ha): 9.0; Preemergence herbicidal rating ORYSAT ([4]; rate 0.0156 kg/ha): 0.0; Preemergence herbicidal rating ORYSAT ([4]; rate 0.0313 kg/ha): 0.0; Preemergence herbicidal rating ORYSAT ([4]; rate 0.0625 kg/ha): 0.0; Preemergence herbicidal rating ORYSAT ([4]; rate 0.1250 kg/ha): 1.0; Preemergence herbicidal rating ORYSAT ([4]; rate 0.2500 kg/ha): 1.0; TRZAWR herbicidal rating ([5]; rate 0.0158 kg/ha): 3.5; TRZAWR herbicidal rating ([5]; rate 0.0315 kg/ha): 3.5; TRZAWR herbicidal rating ([5]; rate 0.0630 kg/ha): 4.0
